Test results published in patent US4876269A (priority 1987, dated 1989).
Like-named read-outs stand apart in the source and are kept apart here.

How the values were obtained:
[1] = parameters: species or system male white mice (CF1); details: mouse, in vivo; for ED50 (effective analgesic dose in 50% of the mice), p.o.: po; for ED50 (effective analgesic dose in 50% of the mice), s.c.: sc
kappa receptor [2] = details: rat, in vivo
kappa receptor [3] = details: rat, in vivo; cited from earlier work

| Structure (SMILES) | ED50 (effective analgesic dose in 50% of the mice), p.o. [1] | ED50 (effective analgesic dose in 50% of the mice), s.c. [1] | also measured |
| --- | --- | --- | --- |
| CN(C(=O)Cc1ccc(Cl)c(Cl)c1)[C@@H]1c2ccccc2OC[C@H]1N1CCCC1 (relative stereo) [Example 7, trans-3,4-Dichloro-N-methyl-N-[3,4-dihydro-3-(pyrrolidin-1-yl)-2H-benzopyran-4-yl]benzeneacetamide] | 36 mg/kg | 1.7 mg/kg |  |
| CN(C(=O)Cc1ccc(Br)cc1)[C@@H]1c2ccccc2CC[C@H]1N1CCCC1 (relative stereo) [Example 10] | 54. mg/kg | 8.1 mg/kg |  |
| CN(C(=O)Cc1ccccc1)[C@@H]1c2ccccc2CC[C@H]1N1CCCC1 (relative stereo) [Example 11] | > 81. mg/kg | 30. mg/kg |  |
| CN(C(=O)Cc1ccc(C(F)(F)F)cc1)[C@@H]1c2ccccc2CC[C@H]1N1CCCC1 (relative stereo) [Example 12] | 54. mg/kg | 19. mg/kg |  |
| CN(C(=O)Cc1ccc(Cl)c(Cl)c1)[C@@H]1c2cccc(OC(=O)c3ccccc3)c2CC[C@H]1N1CCCC1.Cl (relative stereo) [Example 16, trans-3,4-dichloro-N-methyl-N-[2-(pyrrolidin-1-yl)-5-benzoyloxy-1,2,3,4-tetrahydronaphth-1-yl]benzeneacetamide hydrochloride] | 10. mg/kg | 0.71 mg/kg |  |
| CN(C(=O)Cc1ccccc1)[C@@H]1c2ccccc2OC[C@H]1N1CCCC1.Cl (relative stereo) [Example 19, trans-N-methyl-N-[3,4-dihydro-3-(pyrrolidin-1-yl)-2H-benzopyran-4-yl]benzeneacetamide hydrochloride] | 36. mg/kg | 1.7 mg/kg |  |
| COc1cccc2c1OC[C@@H](N1CCCC1)[C@@H]2N(C)C(=O)Cc1ccc(Cl)c(Cl)c1.Cl (relative stereo) [Example 20, trans-3,4-dichloro-N-methyl-N-[3,4-dihydro-8-methoxy-3-(pyrrolidin-1-yl)-2H-benzopyran-4yl]benzeneacetamide hydrochloride] | 30. mg/kg | 1.2 mg/kg |  |
| COCc1c(O)ccc2c1CC[C@@H](N1CCCC1)[C@@H]2N(C)C(=O)Cc1ccc(Cl)c(Cl)c1 (relative stereo) [Example 25] | 54. mg/kg | 0.19 mg/kg |  |
| COCOc1cccc2c1CC[C@@H](N1CCCC1)[C@@H]2N(C)C(=O)Cc1ccc(Cl)c(Cl)c1 (relative stereo) [Example 48] | 13. mg/kg | 4.5 mg/kg |  |
| COc1cccc2c1CC[C@@H](N1CC=CC1)[C@@H]2N(C)C(=O)Cc1ccc(Cl)c(Cl)c1.Cl (relative stereo) [Example 50, trans-3,4-dichloro-N-methyl-N-[2-(2,5-dihydro-1H-pyrrol-1-yl)-5-methoxy-1,2,3,4-tetrahydronaphth-1-yl]benzeneacetamide hydrochloride] | 3.4 mg/kg | 0.24 mg/kg |  |
| CN(C)C(=S)Oc1cccc2c1CC[C@@H](N1CCCC1)[C@@H]2N(C)C(=O)Cc1ccc(Cl)c(Cl)c1.Cl (relative stereo) [Example 68, trans-3,4-dichloro-N-methyl-N-[2-(pyrrolidin-1-yl)-5-(N,N-dimethylthiocarbamoyloxy)-1,2,3,4-tetrahydronaphth-1-yl]benzeneacetamide hydrochloride] | 18. mg/kg | 1.7 mg/kg |  |
| CN(C(=O)Cc1ccc(Cl)c(Cl)c1)[C@@H]1c2c(ccc3ccccc23)CC[C@H]1N1CCCC1 (relative stereo) [Example 69] | 16. mg/kg | 3.0 mg/kg |  |
| CN1CC[C@]23c4c5ccc(O)c4O[C@H]2[C@@H](O)C=C[C@H]3[C@H]1C5 [Morphine] | 3.8 mg/kg | 1.0 mg/kg | % increase over control (urine output) (kappa receptor [2]): 48%; increase in urine flow / diuresis, in words (kappa receptor [2]): minimal or no diuresis; mean cumulative urine output at 5 hours (kappa receptor [2]): 1.38 mL; % increase over control (urine output) (kappa receptor [2]; sc): 159%; mean cumulative urine output at 5 hours (kappa receptor [2]; sc): 2.41 mL; toxicity / deaths (kappa receptor [2]; sc): Toxic (2/8 dead); increase in urine flow, in words (kappa receptor [3]): largely devoid of this property |
